# Biological target: T1, GST-PLK1 (Homo sapiens, UniProt P53350)
# T1 construct: Full-length, active GST-PLK1 is purified from Sf9 insect cells; made in house; host or cells: Sf9 insect cells
# Test: Biochemical Characterization Assay: GST-PLK1 kinase HTRF assay with GST-p53 substrate
# Settings: full-length GST-PLK1, GST-p53 and ATP, 37° C. for 35 minutes, HTRF signal
# Experimental: Biochemical Characterization Assay
# Full-length, active GST-PLK1 is purified from Sf9 insect cells, and full-length GST-p53 is purified from E. coli. Anti-phospho p53 antibody is from Cell Signaling Technology. Europium-conjugated anti-rabbit antibody is from PerkinElmer Life and Analytical Sciences. APC-conjugated anti-GST antibody is from Prozyme.
# To assay compounds of the invention, two microliters of test compound (0.6 nM-4 mM) in DMSO or plain DMSO for control wells, 38 microliters of 20 mM HEPES pH 7, 50 mM NaCl, 10 mM MgCl2, 0.5 mM TCEP, 0.1 mM sodium orthovanadate, 0.1 mg/mL BSA, and 0.05% Triton X-100 (Kinase Assay Buffer) are added. […] Six microliters of GST-PLK1 (3 ug/mL) in Kinase Assay Buffer are then added and the solution incubated at 37° C. for 35 minutes. Six microliters of solution containing 43 mM EDTA to stop the reaction and a 1:600 dilution of anti-phospho-p53 antibody in 20 mM HEPES pH 7, 50 mM NaCl, and 0.5 mg/mL BSA (Antibody Binding Buffer) are added and the solution incubated at 37° C. for 30 minutes. […] The HTRF signal is read on an Envision reader from PerkinElmer Life and Analytical Sciences.
# T1 sequence (P53350 whole entry): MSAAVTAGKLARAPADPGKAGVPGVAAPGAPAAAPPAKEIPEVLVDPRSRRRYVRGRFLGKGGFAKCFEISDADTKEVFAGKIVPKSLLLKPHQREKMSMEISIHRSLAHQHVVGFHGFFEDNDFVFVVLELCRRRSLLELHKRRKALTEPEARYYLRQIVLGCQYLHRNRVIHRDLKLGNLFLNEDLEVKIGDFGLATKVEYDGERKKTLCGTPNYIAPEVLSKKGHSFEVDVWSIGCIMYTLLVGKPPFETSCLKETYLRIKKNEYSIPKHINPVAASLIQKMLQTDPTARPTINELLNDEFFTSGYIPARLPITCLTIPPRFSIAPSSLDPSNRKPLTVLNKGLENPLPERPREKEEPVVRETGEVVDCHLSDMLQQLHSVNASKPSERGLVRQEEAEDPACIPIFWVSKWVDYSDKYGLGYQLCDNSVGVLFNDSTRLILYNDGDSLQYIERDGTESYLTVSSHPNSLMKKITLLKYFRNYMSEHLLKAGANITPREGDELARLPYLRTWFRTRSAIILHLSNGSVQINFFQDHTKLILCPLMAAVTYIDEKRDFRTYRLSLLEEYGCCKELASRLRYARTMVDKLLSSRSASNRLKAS
row,Compound,IC50 [nM]
1,"CC1CN(C2CCCC2)c2nc(Nc3ccc(C(=O)NCCN(C)C)c(Cl)c3)ncc2N(C)C1=O (racemic) [I-87, (rac)-2-Chloro-4-(9-cyclopentyl-5,7-dimethyl-6-oxo-6,7,8,9-tetrahydro-5H-pyrimido[4,5-b][1,4]diazepin-2-ylamino)-N-(2-dimethylamino-ethyl)-benzamide]",500 to 5000
2,"COc1cc(C(=O)NC2CCN(C)CC2)ccc1Nc1ncc2c(n1)N(C1CCCC1)C[C@H](C)C(=O)N2C [I-2b, 7S-4-(9-cyclopentyl-5,7-dimethyl-6-oxo-6,7,8,9-tetrahydro-5H-pyrimido[4,5-b][1,4]diazepin-2-ylamino)-3-methoxy-N-(1-methyl-piperidin-4-yl)-benzamide]",< 500
3,"CC1CN(C2CCCC2)c2nc(Nc3ccc(C(=O)NC4CCOCC4)c(Cl)c3)ncc2N(C)C1=O (racemic) [I-88, (rac)-2-Chloro-4-(9-cyclopentyl-5,7-dimethyl-6-oxo-6,7,8,9-tetrahydro-5H-pyrimido[4,5-b][1,4]diazepin-2-ylamino)-N-(tetrahydro-pyran-4-yl)-benzamide]",500 to 5000
4,"CN1C(=O)C2(CC2)CN(C2CCCC2)c2nc(Nc3ccc(C(=O)NC4CCOCC4)cc3)ncc21 [I-63, 4-[(9-Cyclopentyl-6,7,8,9-tetrahydro-5-methyl-6-oxospiro[5H-pyrimido[4,5-b][1,4]diazepine-7,1′-cyclopropan]-2-yl)amino]-N-(tetrahydropyran-4-yl)benzamide]",< 500
5,"CC1CN(C2CCCC2)c2nc(Nc3ccc(OCc4ccccc4)cc3)ncc2N(C)C1=O (racemic) [I-75, (rac)-2-(4-Benzyloxy-phenylamino)-9-cyclopentyl-5,7-dimethyl-5,7,8,9-tetrahydro-pyrimido[4,5-b][1,4]diazepin-6-one]",> 5000
6,"COc1cc(C(=O)NC2CCN(C)CC2)ccc1Nc1ncc2c(n1)N(CC1CCCC1)CC(C)C(=O)N2C (racemic) [I-55, (rac)-4-(9-Cyclopentylmethyl-5,7-dimethyl-6-oxo-6,7,8,9-tetrahydro-5H-pyrimido[4,5-b][1,4]diazepin-2-ylamino)-3-methoxy-N-(1-methyl-piperidin-4-yl)-benzamide]",< 500
7,"COc1cc(C(=O)NC2CCN(C)CC2)ccc1Nc1ncc2c(n1)N1CCCC(C1)C(=O)N2C (racemic) [I-67, (rac)-3-Methoxy-4-(8-methyl-9-oxo-1,3,5,8-tetraaza-tricyclo[8.3.1.0*2,7*]tetradeca-2,4,6-trien-4-ylamino)-N-(1-methyl-piperidin-4-yl)-benzamide]",> 5000
8,"Cc1cc(C(=O)NC2CCN(C)CC2)ccc1Nc1ncc2c(n1)N(C1CCCC1)CC(C)(C)C(=O)N2C [I-56, 4-(9-Cyclopentyl-5,7,7-trimethyl-6-oxo-6,7,8,9-tetrahydro-5H-pyrimido[4,5-b][1,4]diazepin-2-ylamino)-3-methyl-N-(1-methyl-piperidin-4-yl)-benzamide]",< 500
9,"COc1ccc(NC(=O)C2CCN(C(C)=O)CC2)cc1Nc1ncc2c(n1)N(C1CCCC1)CC(C)C(=O)N2C (racemic) [I-80, (rac)-1-Acetyl-piperidine-4-carboxylic acid [3-(9-cyclopentyl-5,7-dimethyl-6-oxo-6,7,8,9-tetrahydro-5H-pyrimido[4,5-b][1,4]diazepin-2-ylamino)-4-methoxy-phenyl]-amide]",500 to 5000
10,"CC1CN(C2CCCC2)c2nc(Nc3ccc(C(=O)NC4CCN(C)CC4)cc3)ncc2N(C)C1=O (racemic) [I-6, (rac)-4-(9-Cyclopentyl-5,7-dimethyl-6-oxo-6,7,8,9-tetrahydro-5H-pyrimido[4,5-b][1,4]diazepin-2-ylamino)-N-(1-methyl-piperidin-4-yl)-benzamide]",< 500
11,"COc1cc(C(=O)N2CCOCC2)ccc1Nc1ncc2c(n1)N(C1CCCCC1)CCC(=O)N2 [I-31, 9-Cyclohexyl-2-[2-methoxy-4-(morpholine-4-carbonyl)-phenylamino]-5,7,8,9-tetrahydro-pyrimido[4,5-b][1,4]diazepin-6-one]",> 5000
12,"COc1cc(C(=O)NC2CCN(C)CC2)ccc1Nc1ncc2c(n1)N(c1ccccc1)CC(C)C(=O)N2C (racemic) [I-51, (rac)-4-(5,7-Dimethyl-6-oxo-9-phenyl-6,7,8,9-tetrahydro-5H-pyrimido[4,5-b][1,4]diazepin-2-ylamino)-3-methoxy-N-(1-methyl-piperidin-4-yl)-benzamide]",500 to 5000
13,"COc1cc(C(N)=O)ccc1Nc1ncc2c(n1)N(C1CCC1)CCC(=O)N2C [I-34, 4-(9-Cyclobutyl-5-methyl-6-oxo-6,7,8,9-tetrahydro-5H-pyrimido[4,5-b][1,4]diazepin-2-ylamino)-3-methoxy-benzamide]",500 to 5000
14,"CC1CN(C2CCCCC2)c2nc(Nc3ccc4oc(-c5ccncc5)nc4c3)ncc2N(C)C1=O (racemic) [I-26, (rac)-9-Cyclohexyl-5,7-dimethyl-2-(2-pyridin-4-yl-benzooxazol-5-ylamino)-5,7,8,9-tetrahydro-pyrimido[4,5-b][1,4]diazepin-6-one]",> 5000
15,"Cc1cc(C(=O)NC2CCN(C)CC2)ccc1Nc1ncc2c(n1)N(C1CCCC1)CC(C)C(=O)N2C (racemic) [I-8, (rac)-4-(9-Cyclopentyl-5,7-dimethyl-6-oxo-6,7,8,9-tetrahydro-5H-pyrimido[4,5-b][1,4]diazepin-2-ylamino)-3-methyl-N-(1-methyl-piperidin-4-yl)-benzamide]",< 500
16,"COc1cc(C(=O)O)ccc1Nc1ncc2c(n1)N(C1CCCC1)C(C)CC(=O)N2C (racemic) [I-3, (rac)-4-(9-Cyclopentyl-5,8-dimethyl-6-oxo-6,7,8,9-tetrahydro-5H-pyrimido[4,5-b][1,4]diazepin-2-ylamino)-3-methoxy-benzoic acid]",500 to 5000
17,"COc1cc(C(=O)NC2CCN(C)CC2)ccc1Nc1ncc2c(n1)N(C1CCC(C)C1)CCC(=O)N2C (racemic) [I-58, (rac)-3-Methoxy-4-[5-methyl-9-(3-methyl-cyclopentyl)-6-oxo-6,7,8,9-tetrahydro-5H-pyrimido[4,5-b][1,4]diazepin-2-ylamino]-N-(1-methyl-piperidin-4-yl)-benzamide]",< 500
18,"CC1CN(C2CCCC2)c2nc(Nc3cccc(C(=O)NC4CCCCC4)c3)ncc2N(C)C1=O (racemic) [I-91, (rac)-N-Cyclohexyl-3-(9-cyclopentyl-5,7-dimethyl-6-oxo-6,7,8,9-tetrahydro-5H-pyrimido[4,5-b][1,4]diazepin-2-ylamino)-benzamide]",> 5000
19,"CC1CN(C2CCCC2)c2nc(Nc3ccc(O)c(NC(=O)c4ccncc4)c3)ncc2N(C)C1=O (racemic) [I-48, (rac)-N-[5-(9-Cyclopentyl-5,7-dimethyl-6-oxo-6,7,8,9-tetrahydro-5H-pyrimido[4,5-b][1,4]diazepin-2-ylamino)-2-hydroxy-phenyl]-isonicotinamide]",500 to 5000
20,"COc1cc(C(=O)Nc2ccncc2)ccc1Nc1ncc2c(n1)N(C1CCC1)CCC(=O)N2C [I-37, 4-(9-Cyclobutyl-5-methyl-6-oxo-6,7,8,9-tetrahydro-5H-pyrimido[4,5-b][1,4]diazepin-2-ylamino)-3-methoxy-N-pyridin-4-yl-benzamide]",< 500
21,"CC1CN(C2CCCC2)c2nc(Nc3ccc(C(=O)Nc4ccncc4)c(Cl)c3)ncc2N(C)C1=O (racemic) [I-86, (rac)-2-Chloro-4-(9-cyclopentyl-5,7-dimethyl-6-oxo-6,7,8,9-tetrahydro-5H-pyrimido[4,5-b][1,4]diazepin-2-ylamino)-N-pyridin-4-yl-benzamide]",> 5000
22,"COc1cc(C(=O)NC2CCN(C)CC2)ccc1Nc1ncc2c(n1)N(C1CCCC1)CC(C)(C)C(=O)N2C [I-39, 4-(9-Cyclopentyl-5,7,7-trimethyl-6-oxo-6,7,8,9-tetrahydro-5H-pyrimido[4,5-b][1,4]diazepin-2-ylamino)-3-methoxy-N-(1-methyl-piperidin-4-yl)-benzamide]",< 500
23,"CCCNC(=O)c1ccc(Nc2ncc3c(n2)N(C2CCCCC2)CCC(=O)N3)c(OC)c1 [I-30, 4-(9-Cyclohexyl-6-oxo-6,7,8,9-tetrahydro-5H-pyrimido[4,5-b][1,4]diazepin-2-ylamino)-3-methoxy-N-propyl-benzamide]",> 5000
24,"COc1cc(C(=O)NC2CCN(C)CC2)ccc1Nc1ncc2c(n1)N(C1CCCCC1)CC(C)C(=O)N2 (racemic) [I-18, (rac)-4-(9-Cyclohexyl-7-methyl-6-oxo-6,7,8,9-tetrahydro-5H-pyrimido[4,5-b][1,4]diazepin-2-ylamino)-3-methoxy-N-(1-methyl-piperidin-4-yl)-benzamide]",500 to 5000
25,"COc1cc(C(=O)NC2CCN(Cc3ccccc3)CC2)ccc1Nc1ncc2c(n1)N(C1CCCC1)CC(C)C(=O)N2C (racemic) [I-9, (rac)-N-(1-Benzyl-piperidin-4-yl)-4-(9-cyclopentyl-5,7-dimethyl-6-oxo-6,7,8,9-tetrahydro-5H-pyrimido[4,5-b][1,4]diazepin-2-ylamino)-3-methoxy-benzamide]",< 500
26,"CC1CN(C2CCCC2)c2nc(Nc3cccc(C(=O)NC4CCN(C)CC4)c3)ncc2N(C)C1=O (racemic) [I-69, (rac)-3-(9-Cyclopentyl-5,7-dimethyl-6-oxo-6,7,8,9-tetrahydro-5H-pyrimido[4,5-b][1,4]diazepin-2-ylamino)-N-(1-methyl-piperidin-4-yl)-benzamide]",500 to 5000

# Reference: patent US7517873B2, “Substituted pyrimidodiazepines” (Hoffman-La Roche Inc., priority 2007, dated 2009)
